Key:
active caspases = test: [125I]-M808 labeling of active caspases in rat tissue protein extracts; format: binding
Experimental: (§1) Tissues (rat liver, kidney, brain, thymus, mouse thymus) were either frozen or processed within 20 minutes of their removal. Rat tissues and cultured cells were homogenized in ice cold cell lysis buffer (50 mM Tris-Cl pH 7.5, 2 mM EDTA, 1% NP-40) supplemented with 5 mM DTT and Complete protease inhibitor cocktail (Roche). Thymi from mice injected with [^125I]-M808 were homogenized in lysis buffer supplemented with 25 μM of M808. Nuclear debris was removed by centrifugation at 13000 rpm for 10 min and the soluble fraction quantitated by Bradford assay (Bio-Rad). Caspase-3 like activity was determined with the fluorogenic substrate Ac-DEVD-AMC as described by Roy et al. (2001) Proc. Nat. Acad. Sci. USA 98: 6132-6137.
The determination of caspase activity by [^125I]-M808 labeling was performed by pre-incubating purified recombinant human caspase-3 with indicated amounts of caspase inhibitor (M791) or vehicle (DMSO), for 1 hour at 25° C. in ICE buffer III (50 mM Hepes-KOH pH 7.0, 0.1% CHAPS, 10% sucrose, 2 mM EDTA), supplemented with 5 mM DTT. [^125I]-M808 was added to a final concentration of 1.25 μM and incubated for 5 min at 25° C. Active caspases in tissue or cell extracts were labeled by incubating 60-80 μg of lysate with [^125I]-M808 for 15 minutes at 25° C. […]

[1] = target: T1, purified recombinant human caspase-3 (Homo sapiens, UniProt P42574); test: DEVD-AMC cleavage activity with recombinant human caspase-3 pre-incubated with inhibitor; format: biochemical; conditions: purified recombinant caspase-3 pre-incubated with increasing amounts of M791
T1 construct: Active site shared between large and small caspase subunit
T1 sequence (P42574 29-175 limits assumed): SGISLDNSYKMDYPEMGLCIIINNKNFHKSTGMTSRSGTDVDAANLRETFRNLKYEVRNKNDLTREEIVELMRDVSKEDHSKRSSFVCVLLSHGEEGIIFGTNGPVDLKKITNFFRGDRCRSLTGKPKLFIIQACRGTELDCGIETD
T1 sequence (P42574 176-277 limits assumed): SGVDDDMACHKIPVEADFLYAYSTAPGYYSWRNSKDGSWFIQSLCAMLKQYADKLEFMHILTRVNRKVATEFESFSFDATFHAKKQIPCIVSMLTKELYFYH
Experimental: FIG. 3. Potency assessment caspase inhibitors by [^125]-M808 labeling and by DEVD-AMC cleavage activity. A, B-Caspase inhibitor titration and [^125]-M808 labeling with purified recombinant human caspase-3. A-M791 with 5 minute labeling reaction and M791 with 60 minute labeling reaction. In A, the indicated IC50 was defined as the concentration of M791 that reduced the intensity of [^125I]-M808-labeled p17 subunit of caspase-3 by 50%. B-Caspase inhibitor titration and DEVD-AMC cleavage activity with recombinant human caspase-3 that had been incubated with indicated concentration of M791. Under the fluorogenic assay conditions Ki=IC50/2.
as §1, with “6132-6137. […]” for “6132-6137.”

Row | Compound | recognition of active caspases in injured tissue extracts (active caspases; HI neonatal rat brain, infarcted rat heart, septic rat thymi extracts) | effect on [125I]-M808 labeling when added to extract prior to probe (active caspases; granzyme-B treated rat tissue extracts, FIG. 2A lanes 6-9) | IC50 [1] [nM]
1 | COc1ccc(I)cc1CC(=O)N[C@H](C(=O)NC(CC(=O)O)C(=O)CF)C(C)C (stereo partly drawn) [[^125I]-M808, 5-fluoro-3-({N-[(5-iodo-2-methoxyphenyl)acetyl]-L-valyl}amino)-4-oxopentanoic acid] | specifically recognizes active caspases in several types of injured tissues |  | 
2 | COc1ccc(-c2nc(C)no2)cc1CC(=O)N[C@H](C(=O)N[C@@H](CC(=O)O)C(=O)CSCc1ccccc1)C(C)C [Example M791, (3S)-5-(benzylthio)-3-[(N-{[2-methoxy-5-(3-methyl-1,2,4-oxadiazol-5-yl)phenyl]acetyl}-L-valyl)amino]4-oxopentanoic acid] |  | No radiolabeling (lanes 6-8) or strongly reduced labeling (lane 9) | 0.6

From patent US20060069038A1, “Irreversible caspase-3 inhibitors as active site probes” (priority 2003, published 2006)
